{
  "source": "patent US6228886A",
  "about": "“Nutritional formulations containing water-miscible lipid derivatives as antibacterial agents” (Abbott Laboratories, priority 2000, dated 2001)",
  "key": {"RSV [1]": {"tested_on": "RSV", "assay": "In vivo prevention of RSV infection in cotton rats", "conditions": "1000 mg/L Carrageenan in M. Similac®", "excerpt": "Cotton rats have been used as an RSV research animal model for about 20 years. The cotton rat has a similar pathological change in the lung to that observed in human infants when infected by RSV (Prince et al., 1978). […] It has also been observed that the intravenously-administered RSV-IgG has to reach a titer of ≥1:100 concentration to show the preventive effect (Prince et al., 1985). The same serum concentration of RSV-IgG in human infants is protective (Groothuis et al., 1993, 1995). Due to these similarities, the FDA has recommended the cotton rat as an appropriate model for RSV studies.\nTo have a repeatable RSV nasal and lung infection, a high RSV dose (10^4 pfu/animal) was intra-nasally inoculated to all animals. The inoculum (100 μl) consisted of 50 μl of RSV stock solution and 50 μl of test product. […] In addition, some studies were performed in an infant formula in which the intact protein was replaced with a casein hydrolysate (Alimentum®). All animals consumed the regular rodent chow diet throughout the experimental period. Four days after RSV challenge, all animals were sacrificed. Their lung and nasal tissue were isolated for determination of RSV titers. As a positive control, a 5% RSV-IgG was always used. […]"}, "RSV [2]": {"tested_on": "RSV", "conditions": "carrageenan removed from the formulation; cited from earlier work"}},
  "data": [
    {"substance": "Carrageenan", "values": [
      {"measurement": "RSV titer in Lung", "setting": "RSV [1]", "result": "3.06 ± 0.16", "unit": "Log10 PFU/g tissue"},
      {"measurement": "RSV titer in Nose", "setting": "RSV [1]", "result": "3.78 ± 0.47", "unit": "Log10 PFU/g tissue"},
      {"measurement": "anti-RSV activity, previously found", "setting": "RSV [2]", "result": "anti-RSV activity"}
    ]}
  ]
}
